Results from patent publication US20240366618A1, “CGRP Antagonists for Treating Trigeminal Neuralgia” (Pfizer Ireland Pharmaceuticals, priority 2021, published 2024).
Entries after “also recorded” stand apart in the source; their conditions may differ.

Key:
[1] = test system: refractory atypical trigeminal neuralgia; assay: Case study: oral rimegepant in one patient with refractory atypical trigeminal neuralgia; type: in vivo, human; parameters: key to Barrow Neurological Institute (BNI) pain intensity score: II: defined as no pain on medication; conditions: for adverse effects / tolerability / treatment efficacy in words: treatment period of six months
From the text: In this study, refractory atypical trigeminal neuralgia was successfully treated using rimegepant, a novel oral calcitonin gene-related peptide (CGRP) antagonist. The patient experienced a decrease in pain from seven to nine out of 10 to 0 out of 10 within one day of therapy initiation. […] Thus, this case illustrates the promise of CGRP antagonist therapy as a novel treatment for trigeminal neuralgia, including atypical trigeminal neuralgia.
A person with a 5-year history of TN presented with episodic sharp, stabbing and constant burning pain along the V2 nerve distribution. Their pain was triggered by sensation on their upper right teeth, including wind, mastication, and extreme-temperature fluids. Their self-reported pain score ranged from seven to nine out of 10, and their Barrow Neurological Institute (BNI) pain intensity score was rated IV out of V, defined as inadequate pain control with medication. At presentation, their pain regimen consisted of 300 mg oxcarbazepine per day, up to eight 15 mg tablets of oxycodone per day, and 10 mcg per hour transdermal buprenorphine patch. On neurological exam, sensation was intact to light touch bilaterally except along the right nasolabial fold, and grimace was symmetric. The patient experienced impairment in ability to perform daily activities, such as eating, working, and speaking. Other associated symptoms included headache, fatigue, and significant weight loss.
Prior to presentation, the patient unsuccessfully tried several medications for pain control, including oxcarbazepine, meperidine, carisoprodol, propranolol, pregabalin, sumatriptan, and ergot. They also failed medical cannabinoids, oxygen therapy, trigger point injections, and sphenopalatine nerve blockades. They underwent four surgical procedures at outside institutions, including Gamma Knife radiosurgery (37 months prior to presentation), right balloon rhizotomy (31 months prior to presentation), radiofrequency ablation (22 months prior to presentation), and a V2-3 radiofrequency rhizotomy (14 months prior to presentation).
Given their sharp/stabbing pain, we offered them a microvascular decompression (MVD).
After multiple trials of different medications for six years after their MVD, the patient was started on 75 mg of rimegepant per day. Within 12 hours of their first dose, their self-reported pain score improved to 0 out of 10. […] They rarely had mild (2 out of 10) pain, which was controlled with 1 mg buprenorphine. Their BNI pain intensity score was reduced to II, defined as no pain on medication.

migraine [2] = assay: Three double-blind, placebo-controlled BHV-3000 migraine studies; type: in vivo, human; conditions: 75 mg dose
[3] = Ongoing long-term safety study of rimegepant; type: in vivo, human; conditions: 75 mg dose; preliminary data
migraine [4] = conditions: cited from earlier work
[5] = test system: classic trigeminal neuralgia; conditions: patients with classic trigeminal neuralgia; cited from earlier work
trigeminal neuralgia = conditions: cited from earlier work
[6] = 75 mg per day, listed as Rimegepant
[7] = acute migraine treatment trial, fast-dissolve orally disintegrating tablet (ODT) formulation

Question: For `N[C@@H]1c2cccnc2[C@H](OC(=O)N2CCC(n3c(=O)[nH]c4ncccc43)CC2)CC[C@H]1c1cccc(F)c1F` [rimegepant, (5S,6S,9R)-5-amino-6-(2,3-difluorophenyl)-6,7,8,9-tetrahydro-5H-cyclohepta[b]pyridine-9-yl-4-(2-oxo-2,3-dihydro-1H-imidazo[4,5-b]pyridine-1-yl)piperidine-1-carboxylate], which “time after first dose until self-reported pain score improved to 0 out of 10” value ([1]; 75 mg of rimegepant per day) is on record?
Answer: ≤ 12 h

Question: And the self-reported pain score ([1]; 75 mg of rimegepant per day, within 12 hours of first dose, before treatment seven to nine out of 10)?
Answer: 0 out of 10

Question: And the “Barrow Neurological Institute (BNI) pain intensity score” value ([1]; on 75 mg rimegepant per day, before treatment IV out of V)?
Answer: II

Question: And the “time after therapy initiation until pain decreased to 0 out of 10” value ([1]; oral rimegepant)?
Answer: one

Question: And the mood and cognition ([1]; patient-reported, six-month treatment period)?
Answer: drastic improvement in mood and cognition

Question: And the “rare mild pain during treatment” value ([1]; six-month treatment period, 75 mg per day, controlled with 1 mg buprenorphine)?
Answer: 2 out of 10

Question: And the “adverse effects / tolerability” value ([1]; 75 mg per day)?
Answer: no significant adverse effects

Question: And the “treatment efficacy in words” value ([1]; 75 mg per day)?
Answer: continues to be efficacious; also recorded: mostly had no pain

Question: What about the “adverse effects / tolerability” value [1, 6] of the same molecule?
Answer: well tolerated

Question: What about the “treatment efficacy in words” value [1, 6] of the same molecule?
Answer: maintains efficacy over a period of six months

Question: And the “adverse effects / tolerability” value ([1]; 75 mg per day, listed as rigemepant)?
Answer: lack of adverse effects

Question: What about the pain ([1]; within one day of therapy initiation, before treatment seven to nine out of 10) of the same molecule?
Answer: 0 out of 10

Question: And the “efficacy for the treatment of migraine in words” value (migraine [2])?
Answer: effective

Question: What about the tolerability in words [3] of the same molecule?
Answer: well tolerated

Question: And the “time postdose at which statistically significant benefit for pain relief was demonstrated” value (migraine [4]; [7])?
Answer: 60 min

Question: And the “time postdose at which statistically significant benefit on achieving pain freedom was demonstrated” value (migraine [4]; [7])?
Answer: 90 min

Question: What about the “safety profile in words” value (migraine [4]; migraine trials) of the same molecule?
Answer: favorable safety profile

Question: What about the “efficacy in migraine in words” value (migraine [4]; orally administered, preventive and acute treatment) of the same molecule?
Answer: proven efficacy in the preventive and acute treatment of migraine

Question: Which “response rates with initial therapy” value [5] does the source give for `NC(=O)N1c2ccccc2C=Cc2ccccc21` [carbamazepine] here?
Answer: approximately 70%

Question: With `NC(=O)N1c2ccccc2CC(=O)c2ccccc21` [oxcarbazepine] as the molecule, how does the “response rates with initial therapy” value [5] read?
Answer: approximately 70%

B1: erenumab: an injected anti-CGRP monoclonal antibody (antibody, chains of the INN, looked up, V domains shown)
VH: QVQLVESGGGVVQPGRSLRLSCAASGFTFSSFGMHWVRQAPGKGLEWVAVISFDGSIKYSVDSVKGRFTISRDNSKNTLFLQMNSLRAEDTAVYYCARDRLNYYDSSGYYHYKYYGMAVWGQGTTVTVSS
VL: QSVLTQPPSVSAAPGQKVTISCSGSSSNIGNNYVSWYQQLPGTAPKLLIYDNNKRPSGIPDRFSGSKSGTSTTLGITGLQTGDEADYYCGTWDSRLSAVVFGGGTKLTVL
Question: What does the source list for B1?
Answer: patients reporting constipation and/or injection site reaction (trigeminal neuralgia; in vivo): three; side effects in words (trigeminal neuralgia; in vivo): minimal; patients with significant decrease in trigeminal neuralgia pain (trigeminal neuralgia; injected erenumab): nine; patients reporting complete pain resolution (trigeminal neuralgia; of 10 patients treated with erenumab): five
